Data reported in PubChem BioAssay (NCI).
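Five compound concentrations were applied to cells in 96-well plates for 48 hours; endpoints were derived by simple linear interpolation of the resulting dose-response curve. Abbreviation: GI50, concentration required for 50% inhibition of growth. At the TGI there is no net growth.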

Assays:
Test in all cases: NCI-60 cell line screen, 48 h
[1] = test system: SN12C renal
[2] = test system: DU-145 prostate
[3] = test system: PC-3 prostate
[4] = test system: OVCAR-3 ovarian
[5] = test system: SF-295 CNS
[6] = test system: SNB-19 CNS
[7] = test system: MDA-MB-231 breast
[8] = test system: KM12 colon
[9] = test system: RPMI-8226 leukemia
[10] = test system: HS 578T breast
[11] = test system: SK-OV-3 ovarian
[12] = test system: HCT-15 colon
[13] = test system: CCRF-CEM leukemia
[14] = test system: MALME-3M melanoma
[15] = test system: UACC-62 melanoma
[16] = test system: ACHN renal
[17] = test system: K-562 leukemia
[18] = test system: HT29 colon
[19] = test system: A498 renal
[20] = test system: RXF 393 renal
[21] = test system: OVCAR-4 ovarian
[22] = test system: 786-0 renal
[23] = test system: OVCAR-5 ovarian
[24] = test system: M14 melanoma
[25] = test system: NCI-H522 lung
[26] = test system: MOLT-4 leukemia
[27] = test system: A549 NSCLC
[28] = test system: HOP-92 NSCLC
[29] = test system: IGROV1 ovarian
[30] = test system: MDA-MB-435
[31] = test system: NCI/ADR-RES ovarian
[32] = test system: UACC-257 melanoma
[33] = test system: HOP-62 NSCLC
[34] = test system: UO-31 renal
[35] = test system: SR leukemia
[36] = test system: CAKI-1 renal
[37] = test system: NCI-H460 lung
[38] = test system: EKVX NSCLC
[39] = test system: U251 CNS
[40] = test system: SK-MEL-28 melanoma
[41] = test system: SW-620 colon
[42] = test system: NCI-H23 lung
[43] = test system: MCF7 breast
[44] = test system: HCC-2998 colon
[45] = test system: HCT-116 colon
[46] = test system: COLO 205 colon
[47] = test system: SK-MEL-5 melanoma
[48] = test system: SK-MEL-2 melanoma
[49] = test system: SNB-75 CNS
[50] = test system: HL-60(TB) leukemia

SMILES: COc1cc(/C=C2\CN(S(=O)(=O)c3ccccc3)C/C(=C\c3cc(CN4CCCCC4)c(O)c(OC)c3)C2=O)cc(CN2CCCCC2)c1O
- GI50 [1]: 1.83 µM
- TGI [1]: 3.63 µM
- GI50 [2]: 1.73 µM
- TGI [2]: 3.19 µM
- GI50 [3]: 1.73 µM
- TGI [3]: 3.4 µM
- GI50 [4]: 1.72 µM
- TGI [4]: 3.25 µM
- GI50 [5]: 2.25 µM
- TGI [5]: 5.01 µM
- GI50 [6]: 2 µM
- TGI [6]: 4.58 µM
- GI50 [7]: 1.77 µM
- TGI [7]: 3.47 µM
- GI50 [8]: 1.73 µM
- TGI [8]: 3.41 µM
- GI50 [9]: 2.29 µM
- TGI [9]: 5.11 µM
- GI50 [10]: 1.63 µM
- TGI [10]: 4.31 µM
- GI50 [11]: 1.93 µM
- TGI [11]: 3.85 µM
- GI50 [12]: 1.79 µM
- TGI [12]: 3.78 µM
- GI50 [13]: 2.62 µM
- TGI [13]: 7.25 µM
- GI50 [14]: 1.74 µM
- TGI [14]: 3.39 µM
- GI50 [15]: 1.65 µM
- TGI [15]: 3.44 µM
- GI50 [16]: 1.54 µM
- TGI [16]: 2.93 µM

SMILES: C[C@@H]1OC(=O)C[C@H]2CC(=O)N(CCC3CN(S(=O)(=O)C(F)(F)F)c4ccccc43)C[C@@H]21 (some centres undefined)
- TGI [17]: > 100 µM
- TGI [18]: > 100 µM
- TGI [19]: > 100 µM
- TGI [20]: > 100 µM
- TGI [21]: > 100 µM
- TGI [22]: > 100 µM
- TGI [23]: > 100 µM
- TGI [24]: > 100 µM
- TGI [2]: > 100 µM
- TGI [3]: > 100 µM
- TGI [4]: > 100 µM
- TGI [25]: > 100 µM
- TGI [5]: > 100 µM
- TGI [26]: > 100 µM
- TGI [27]: > 100 µM
- TGI [28]: > 100 µM
- TGI [29]: > 100 µM
- TGI [30]: > 100 µM
- TGI [31]: > 100 µM
- TGI [32]: > 100 µM
- TGI [6]: > 100 µM
- TGI [33]: > 100 µM
- TGI [7]: > 100 µM
- TGI [34]: > 100 µM
- TGI [35]: > 100 µM
- TGI [36]: > 100 µM
- TGI [8]: > 100 µM
- TGI [37]: > 100 µM
- TGI [38]: > 100 µM
- TGI [39]: > 100 µM
- TGI [40]: > 100 µM
- TGI [41]: > 100 µM
- TGI [9]: > 100 µM
- TGI [42]: > 100 µM
- TGI [10]: > 100 µM
- TGI [11]: > 100 µM
- TGI [43]: > 100 µM
- TGI [44]: > 100 µM
- TGI [45]: > 100 µM
- TGI [46]: > 100 µM
- TGI [47]: > 100 µM
- TGI [48]: > 100 µM
- TGI [12]: > 100 µM
- TGI [13]: > 100 µM
- TGI [14]: > 100 µM
- TGI [15]: > 100 µM
- TGI [16]: > 100 µM

SMILES: Cc1ccc(NC(=O)c2[nH]c(SCCN(C)C)nc2-c2ccc(F)cc2)cc1C#Cc1cnc2cccnn12
- GI50 [17]: 0.127 µM
- TGI [17]: 1.55 µM
- GI50 [19]: 1.76 µM
- TGI [19]: 3.32 µM
- GI50 [49]: 1.59 µM
- TGI [49]: 2.99 µM
- GI50 [2]: 1.83 µM
- TGI [2]: 3.34 µM
- GI50 [3]: 2.12 µM
- TGI [3]: 4.89 µM
- GI50 [26]: 1.93 µM
- TGI [26]: 4.83 µM
- GI50 [28]: 1.08 µM
- TGI [28]: 2.73 µM
- GI50 [50]: 1.38 µM
- TGI [50]: 3.14 µM
- GI50 [32]: 1.88 µM
- TGI [32]: 3.51 µM
- GI50 [34]: 1.38 µM
- TGI [34]: 2.79 µM
- GI50 [35]: 0.46 µM
- TGI [35]: 2.22 µM
- GI50 [9]: 1.91 µM
- TGI [9]: 6.05 µM
- GI50 [11]: 1.92 µM
- TGI [11]: 3.44 µM
- GI50 [48]: 1.35 µM
- TGI [48]: 3.16 µM
- GI50 [13]: 2.08 µM
- TGI [13]: 6.92 µM
